Data taken from patent US20220008406A1, “USE OF NUCIFERIN AND LOTUS LEAF EXTRACT IN THE PREPARATION OF A MEDICAMENT FOR TREATING ATROPHIC GASTRITIS AND/OR BLOCKING TRANSFORMATION OF GASTRITIS INTO CANCER” (priority 2018, published 2022).
Entries after “also recorded” stand apart in the source; their conditions may differ.

How the values were obtained:
colon cancer = conditions: people who take aspirin for a long time; cited from earlier work
[1] = tested on: rats with chronic atrophic gastritis; test: Nuciferine treatment of rats with chronic atrophic gastritis with intestinal metaplasia induced by sodium deoxycholate and ammonia water; format: in vivo, SD rats; conditions: for pathological state of chronic atrophic gastritis, HE-stained gastric tissue sections: 4 weeks after 8 weeks modeling, vs model group
From the text: An animal model of chronic atrophic gastritis induced by sodium deoxycholate and ammonia water was selected. After the model was successfully established, celecoxib and nuciferine were given by gavage.
The experiment: The experimental animals were from Beijing Weitong Lihua Laboratory Animal Technology Co., Ltd. Thirty SD rats with a specific pathogen free (SPF) grade of 200±20 g were selected, with half males and half males, and randomly divided into […]: normal control group, chronic atrophic gastritis (CAG) model group, the positive drug celecoxib intervention group and the nuciferine intervention group, with 6 rats in each group. The nuciferine was purchased from Chengdu Refines Biotechnology Co., Ltd., with a specification of 5 g and a purity of over 98%. Celecoxib was purchased from Beijing Bailingwei Technology Co., Ltd., with brand J&K, a specification of 1 g, and purity above 98%. Sodium deoxycholate was purchased from Amresco, USA, with a specification of 100 g. The rats in the model group, celecoxib intervention group and nuciferine intervention group were given sodium deoxycholate solution and ammonia to induce chronic atrophic gastritis. 20 mmol/L sodium deoxycholate was administered […] at a dose of 6 ml/kg, twice a week on an empty stomach, 0.1% ammonia water was drunk freely, and the model was continuously modeled for 8 weeks. […] After modeling, the celecoxib group and the nuciferine intervention group were given celecoxib 10 mg/kg, nuciferine 40 mg/kg, and 10 mg/kg by gavage administration, once a day. During the experiment, the rats' body weight and food intake were observed.
At the end of the dosing experiment, after the rats were sacrificed by dislocation, the stomach tissue was quickly taken out and prepared for pathological sectioning. The obtained gastric tissue was cut along the greater curvature of the stomach, washed with saline, blotted dry with filter paper, and fixed with formalin solution (10% formaldehyde solution). The sections were embedded, dehydrated by alcohol, and then made transparent with xylene. And then the sections were waxed and embed in paraffin. In the staining stage, the sections were soaked in xylene solution for 10 minutes each time for 3 times; then they were soaked in absolute ethanol and rinsed in tap water. Finally, the sections were stained with hematoxylin (to stain the nucleus) and eosin (to stain the cytoplasm), and the sections were mounted with neutral gum. Finally, the pathological changes of rat stomach tissue were observed under light microscope.

[2] = tested on: gastric mucosal injury model rats; test: Protection against gastric mucosal damage induced by absolute ethanol in rats; format: in vivo, SD rats; conditions: for congestion and bleeding of the gastric mucosa: then 1.0 mL absolute ethanol
From the text: After continuous administration of […] and […] in rats, gastric mucosal damage was induced by absolute ethanol, and the gastric mucosal damage was observed under a microscope after dissection.
The experimental: The experimental animals were from Beijing Sibeifu Biotechnology Co., Ltd., and 30 SD rats of 200±20 g specific pathogen free (SPF) grade, male, were chosen and randomly divided into 5 groups: normal control group, the gastric mucosal injury model group, the nuciferine low-dose group, the nuciferine high-dose group and the lotus leaf extract group, as shown in Table 3. The low-dose nuciferine group, the high-dose nuciferine group and the lotus leaf extract group were administered intragastrically for 14 days, once a day. The nuciferine was purchased from Chengdu Refines Biotechnology Co., Ltd., with a specification of 5 g and a purity of over 98%. The lotus leaf extract was purchased from Hebei Chenguang Biotechnology Group Handan Co., Ltd., with a specification of 1 kg and a content of nuciferine of more than 0.4%. 1 hour after the rats in the low-dose nuciferine group, the high-dose nuciferine group and the lotus leaf extract group were given continuous administration, the rats in the control group and the model group were strictly fasted for 24 hours (with water available), and medicine was also prohibited during this period. Rats in the model group, the low-dose nuciferine group, the high-dose nuciferine group, and the lotus leaf extract group were given 1.0 mL of absolute ethanol per rat by intragastric administration; 1 hour after the completion of the modeling, the rats were sacrificed by blood sampling from the abdominal aorta, and the stomach was taken by cutting the abdomen, was injected with 10% formaldehyde solution, and fixed for 20 minutes, then the stomach was cut along the greater curvature of the same and was washed to remove the stomach contents, and a general observation under a dissecting microscope was conducted and the length of injury (mm) was measured.

[3] = tested on: Drosophila gastrointestinal stem cells; test: DSS-induced abnormal proliferation of Drosophila gastrointestinal stem cells (esg-GFP); format: in vivo
From the text: The gastrointestinal tumorigenesis model reported in the publication “Cell Stem Cell” of “Cell” Press was select. Dextran sulfate sodium (DSS) was used to induce abnormal proliferation of Drosophila gastrointestinal stem cells to simulate the process of tumorigenesis. During the modeling period, nuciferine and lotus leaf extract were given.
The experimental: Dextran sulfate sodium (DSS) was used to induce abnormal proliferation of drosophila gastrointestinal stem cells to simulate the process of tumorigenesis. The experimental drosophila were esg-GFP purchased from Tsinghua Drosophila Center. GFP (green fluorescent protein driven by esg-Ga14) can specifically label intestinal stem cells and enteroblasts. A solution containing 20% sucrose, 3% DSS (average molecular weight 40 kDa) and 0.5% dimethyl sulfoxide (DMSO) was prepared, and the solution was mixed with the drosophila food, and the mixture was placed half-dry and was then used to feed the drosophila to perform modeling. During the modeling period, different groups were given nuciferine and lotus leaf extract. The nuciferine was purchased from Chengdu Refines Biotechnology Co., Ltd., with a specification of 5 g and a purity of over 98%. The lotus leaf extract was purchased from Hebei Chenguang Biotechnology Group Handan Co., Ltd., with a specification of 100 g and a nuciferine content of more than 0.4%. Sodium dextran sulfate was purchased from Beijing Zhongkekeao Biotechnology Co., Ltd. with a brand of mp and a specification of 50 g. The dimethyl sulfoxide was purchased from Amresco, USA, with a specification of 500 ml.
1) The Nuciferine Experiment Groups
Model control group: medium+0.5% DMSO+3% DSS
Low-dose nuciferine group: medium+0.5% DMSO+3% DSS+nuciferine 100 μM
High-dose nuciferine group: medium+0.5% DMSO+3% DSS+nuciferine 200 μM
2) The Lotus Leaf Extract Experiment Groups
Lotus leaf extract low-dose group: medium+0.5% DMSO+3% DSS+lotus leaf extract (containing 100 μM […])
Lotus leaf extract medium-dose group: medium+0.5% DMSO+3% DSS+lotus leaf extract (containing 200 μM […]) […]

MNNG-GES-1 cells = test: MTT assay on MNNG-stimulated GES-1 cell model of transformation of gastritis to gastric cancer; format: cell-based, human; conditions: nuciferine 48 h
From the text: The gastritis cancer transformation model used in this example formed by human gastric epithelial cells (GES-1) induced by chemical mutagens N-methyl N-nitronitrosoguanidine (MNNG) was as reported in the literature. The nuciferine was purchased from Chengdu Refines Biotechnology Co., Ltd., with a specification of 1 g and a purity of over 98%. The MNNG was purchased from Beijing Baiyiyi Chuang Biotechnology Co., Ltd., with a brand Tixiai and a specification of 5 g. The GES-1 cells were purchased from Shanghai Xuran Biotechnology Co., Ltd. The phosphate buffered saline (PBS) was purchased from Amresco, USA, with a specification of 10 L. The dimethyl sulfoxide (DMSO) was purchased from Amresco, USA, with a specification of 500 ml. The fetal bovine serum (FBS) was purchased from Amresco, USA, with a specification of 100 ml. The 3-(4,5-Dimethylthiazole-2)-2,5-diphenyltetrazolium bromide (MTT) was purchased from Shanghai Biyuntian Biotechnology Co., Ltd., with a specification of 500 mg.
GES-1 cells was planted in a 96-well plate (8000 cells/well, leave a row of blank holes, discard the edge holes and add an equal volume of PBS to reduce evaporation), the old solution was aspirated the next day, and 10% FBS containing no double antibody medium was added, […] MNNG was added to induce stimulation, culturing for 24 h in the dark, and discarding the culture medium containing MNNG. […]

Compound	reduction of incidence of colon cancer (colon cancer) [%]	pathological state of chronic atrophic gastritis, HE-stained gastric tissue sections ([1]; 10 mg/kg (celecoxib group; low-dose nuciferine group) by gavage once a day)	pathological state of chronic atrophic gastritis, HE-stained gastric tissue sections ([1]; 40 mg/kg (high-dose nuciferine group) by gavage once a day)	weight of rats ([1]; CAG model rats, therapeutic administration, dose groups not distinguished)	treatment of chronic atrophic gastritis and intestinal metaplasia of rats (pathological slices) ([1]; intervention groups, doses not distinguished)	gastric mucosal injury of rats compared with the model group ([2]; doses not distinguished)	congestion and bleeding of the gastric mucosa ([2]; nuciferine high-dose 40 mg/kg intragastric once a day 14 days)	congestion and bleeding of the gastric mucosa ([2]; nuciferine low-dose 20 mg/kg intragastric once a day 14 days)	abnormal proliferation of Drosophila gastrointestinal stem cells and mucosal ulceration ([3]; doses not distinguished)	proliferation of drosophila gastrointestinal stem cells ([3]; high-dose nuciferine 200 μM in medium + 0.5% DMSO + 3% DSS, 3-5 days at 25° C.)	abnormal proliferation of drosophila gastrointestinal stem cells ([3]; low-dose nuciferine 100 μM in medium + 0.5% DMSO + 3% DSS, 3-5 days at 25° C.)	IC50 (MNNG-GES-1 cells; Homo sapiens, GES1, GES-1 cells stimulated with MNNG 24 h, read-out: half inhibitory concentration (IC50) on cells transformed from gastritis to gastric cancer) [µM]	viability of MNNG-GES-1 cells (MNNG-GES-1 cells; P<0.05)
CC(=O)Oc1ccccc1C(=O)O [aspirin]	24												
COc1cc2c3c(c1OC)-c1ccccc1C[C@H]3N(C)CC2 [nuciferine]		reduced to the state of chronic non-atrophic gastritis	best effect; also recorded: significantly reduced	increased the weight of rats	effectively treated	significantly improved; also recorded: improved compared with the model group	no congestion and bleeding	reduced	effectively inhibited	returned to normal	reduced	92.7	significantly inhibiting
